“Also recorded” adds a separate entry of the source. Each block holds one compound with its values, some of them ahead of it.
Columns and labels:
[1] = Excipient compatibility study of milled API in binary mixtures (40° C./75% R.H. open, 60° C. closed; HPLC, XRPD, appearance); assay type: physicochemical
Experimental: Samples were set up at each of these two conditions: 40° C./75% R.H. open, and 60° ° C., closed. Three sampling time points (initial, 2 weeks, and 4 weeks) are specified in Table 15.
The API was set up as a control at each time point and each condition. For the pure excipients, only one bulk sample was set up at each condition. They were analyzed at the initial time point and at other time points if degradation of the active substance was observed. For the 15 binary mixtures, triplicate samples were set up at each time point/condition. Two samples were analyzed for purity and XRPD test, and the third one was kept as a contingency sample. The appearance and XRPD of samples under each condition were recorded at each time point.
The binary mixture was set up in duplicate.
Excipient blank controls: Each excipient blank was weighed into a 40 mL clear glass vial as excipient blank control. The excipient blank was set up as a single sample.
API control: Approximate: 13.8 mg of API was weighed into a 40 mL clear glass vial. The API control was set up in duplicate.
All the samples for open condition storage were put into an uncapped clear glass vial. The mouth of vials were covered by aluminum foil with pinholes, to avoid cross-contamination, and then stored in the stability chamber. The samples were stored at each condition 40° C./75% R.H. open and 60° C. close conditions and monitored for physical appearance, XRPD, impurities/related substances and assay at each time point, respectively.
All samples at 40° C./75% R.H., and 60° C. for 2 weeks and 4 weeks, were pulled out and cooled to room temperature for physical appearance, total related substances (TRS) and assay analysis. The diluent was accurately added into 40 ml vials and then the solution was sonicated for 10 minutes to facilitate dissolution of the API. Then 1 mL solution was taken out and centrifuged at 14000 rpm for 5 min for twice to separate some undissolved excipients, and then the concentration of supernatants were analyzed by HPLC instrument. The recovery and TRS results of excipient compatibility study at 40° C./75% R.H., and 60° C. are shown in Table 9, and the results of the complete impurity content and XRPD result are listed in Table 7.

[2] = Hygroscopicity: storage at 92.5% RH for 1 week, weight loss by TGA; assay type: physicochemical; conditions: for 92.5% RH for 1W, observation: after 92.5% RH for 1 week, Deliqu means deliquescent; for 92.5% RH for 1W (by TGA,%): weight loss by TGA at 145° C. after 92.5% RH for 1 week
[3] = Dynamic Vapor Sorption (DVS) at 25° C.; conditions: for DVS Result 95% RH: 0(120 min)-95% RH(180 min), dm/dt 0.002%
[4] = Solubility at 25° C., 24 h, in SGF, FaSSIF, FeSSIF and water; assay type: physicochemical
[5] = 70% RH, 25° C., method 50-90-0-50% RH, dm/dt = 0.01%

Compound: CN1CCCC(CN2c3ccccc3Sc3ccccc32)C1.O=C(O)CCC(=O)O (stereo not shown) [API control]
- Assay (%) ([1]; 40° C./75% RH open, 2 weeks): 100.82%
- TRS (%) (total related substances) ([1]; 40° C./75% RH open, 2 weeks): 0.18%
- XRPD ([1]; 40° C./75% RH open, 2 weeks): No change
- Assay (%) ([1]; 40° C./75% RH open, 4 weeks): 100.08%
- TRS (%) (total related substances) ([1]; 40° C./75% RH open, 4 weeks): 0.12%
- XRPD ([1]; 40° C./75% RH open, 4 weeks): No change
- Assay (%) ([1]; 60° C. close, 2 weeks): 99.70%
- TRS (%) (total related substances) ([1]; 60° C. close, 2 weeks): 0.18%
- XRPD ([1]; 60° C. close, 2 weeks): No change
- Assay (%) ([1]; 60° C. close, 4 weeks): 102.38%
- TRS (%) (total related substances) ([1]; 60° C. close, 4 weeks): 0.13%
- XRPD ([1]; 60° C. close, 4 weeks): No change
- Assay (%) ([1]; Initial 0 day): 100.00%
- TRS (%) (total related substances) ([1]; Initial 0 day): 0.14%

- 92.5% RH for 1W (by TGA,%) [2]: 2.3% at 145 °C
Compound: O=S(=O)(O)O [Sulfate]
- 92.5% RH for 1W, observation [2]: Discoloration,; also recorded: Agglomerate

Compound: CN1CCCC(CN2c3ccccc3Sc3ccccc32)C1.O=C(O)CCCCC(=O)O (stereo not shown) [Adipate]
- 92.5% RH for 1W (by TGA,%) [2]: 0.6% at

Compound: CN1CCCC(CN2c3ccccc3Sc3ccccc32)C1.Cl (stereo not shown) [Hydrochloride, reference compound]
- moisture absorbed by DVS ([3]; 25° C. and 95% RH for about 5 hours): 16.9 wt %
- moisture absorbed at 80% RH ([3]; 80% RH at 25° C.): 0.85%
- behaviour under long term humidity conditions ([2]; 25° C., 92.5% RH for one week): deliquescent
- 92.5% RH for 1W, observation [2]: Deliqu

Compound: CN1CCCC(CN2c3ccccc3Sc3ccccc32)C1.O=P(O)(O)O (stereo not shown) [Phosphate]
- DVS Result 95% RH ([3]; 25° C.): 5.18%
- 92.5% RH for 1W (by TGA,%) [2]: 1.3% at

- DVS Result 95% RH ([3]; 25° C.): 16.84%
- 92.5% RH for 1W (by TGA,%) [2]: 2.4% at
Compound: N[C@@H](CCC(=O)O)C(=O)O [Glutamate]

- DVS Result 95% RH ([3]; 25° C.): 1.87%
- 92.5% RH for 1W (by TGA,%) [2]: 0.4% at
Compound: (S)-mepazine succinate salt

Compound: CN1CCCC(CN2c3ccccc3Sc3ccccc32)C1.O=C(O)CC(O)C(=O)O (stereo not shown) [Malate]
- 92.5% RH for 1W, observation [2]: Deliqu

- DVS Result 95% RH ([3]; 25° C.): 1.29%
- DVS Desorp (%) [3, 5]: 0.13%
- DVS Sorption (%) [3, 5]: 0.13%
- Solubility 24 h ([4]; FaSSIF, pH 6.5): 9.4 mg/mL
- pH of solubility sample ([4]; FaSSIF, pH 6.5, 24 h): 3.63
- pH of solubility sample ([4]; FaSSIF, pH 6.5, 24 h, target concentration 2 mg/mL): 5.48
- Solubility 24 h ([4]; FaSSIF, pH 6.5, target concentration 2 mg/mL): > 2 mg/mL
- Solubility 24 h ([4]; FeSSIF, pH 5.0): 3.4 mg/mL
- pH of solubility sample ([4]; FeSSIF, pH 5.0, 24 h): 4.52
- pH of solubility sample ([4]; FeSSIF, pH 5.0, 24 h, target concentration 2 mg/mL): 4.89
- Solubility 24 h ([4]; FeSSIF, pH 5.0, target concentration 2 mg/mL): > 2 mg/mL
- Solubility 24 h ([4]; H2O): 3.8 mg/mL
- pH of solubility sample ([4]; H2O, 24 h): 3.49
- pH of solubility sample ([4]; H2O, 24 h, target concentration 2 mg/mL): 3.80
- Solubility 24 h ([4]; H2O, target concentration 2 mg/mL): > 2 mg/mL
- Solubility 24 h ([4]; SGF, pH 2.0): 7.5 mg/mL
- pH of solubility sample ([4]; SGF, pH 2.0, 24 h): 2.60
- pH of solubility sample ([4]; SGF, pH 2.0, 24 h, target concentration 2 mg/mL): 1.99
- Solubility 24 h ([4]; SGF, pH 2.0, target concentration 2 mg/mL): > 2 mg/mL
- 92.5% RH for 1W (by TGA,%) [2]: 0.3% at
Compound: Fumarate

Compound: CN1CCCC(CN2c3ccccc3Sc3ccccc32)C1.O=C(O)C(O)C(O)C(=O)O (stereo not shown) [Tartarate Pattern I]
- 92.5% RH for 1W, observation [2]: Deliqu

— US20240217961A1 (MONOPTEROS THERAPEUTICS, INC., priority 2021, published 2024)
